How the values were obtained:
MV4-11 cells = test: CellTiter-Blue cell viability, MV-4-11; type: cell-based; conditions: Homo sapiens, 72 hrs exposure
Description: (§1) Anti-cancer efficacy of exemplary compounds of this application was assessed in vitro in different cancer cell lines. Cell viability was examined following treatment at various concentration of inhibitor (0.097656-50 μM) using a cell Titer-Blue cell viability assay. 1×10^4 cells (NHF, MV4-11, K562 and MOLM-13 cells)/well were plated in 96-well assay plates in culture medium. All cells were grown in DMEM, IMDM and RPMI-1640 supplemented with 10% FBS. After 24 hrs, test compounds and vehicle controls were added to appropriate wells so the final volume was 100 μl in each well. The cells were cultured for the desired test exposure period (72 hrs) at 37° C. and 5% CO2. The assay plates were removed from 37° C. incubator and 20 μl/well of CellTiter-Blue® Reagent was added. The plates were incubated using standard cell culture conditions for 1-4 hours and the plates were shaken for 10 seconds and record fluorescence at 560/590 nm.

K562 cells = test: CellTiter-Blue cell viability, K562; type: cell-based; conditions: Homo sapiens, 72 hrs exposure
Description: as §1

MOLM-13 cells = test: CellTiter-Blue cell viability, MOLM-13; type: cell-based; conditions: Homo sapiens, 72 hrs exposure
Description: as §1

tubulin = test: Tubulin polymerization assay; type: biochemical; conditions: for % Inhibition: Vmax normalized to tubulin only control; for % D.O.P.: degree of polymerization relative to tubulin control
Description: A96-well half-area clear flat-bottom microplate (Corning® #3697) was pre-heated in a plate reader (Cytation 3, BioTek) at 37° C. for 15 minutes prior to the start of each assay. Tubulin polymerization buffer (80 mM PIPES pH 6.9, 2 mM MgCl2, 0.5 mM EGTA, 15% glycerol, 1 mM GTP) was prepared from stock solutions and placed on ice. Inhibitors were prepared to M concentrations in buffer (80 mM PIPES pH 6.9, 2 mM MgCl2, 0.5 mM EGTA, 5% DMSO) from DMSO stock solutions. After the assay plate was pre-warmed, 10 μL of inhibitor or buffer control was added to selected wells. Every assay contained a tubulin only negative control for normalization of data, and a batabulin positive control. The assay plate was incubated at 37° C. for 3 minutes. During this time, a frozen aliquot of tubulin (10 mg/mL) in buffer (80 mM PIPES pH 6.9, 2 mM MgCl2, 0.5 mM EGTA) was defrosted by placing in a room temperature water bath. Once thawed, 200 μL of tubulin was mixed with 420 μL ice cold tubulin polymerization buffer (3 mg/mL tubulin in 80 mM PIPES, pH 6.9, 2 mM MgCl2, 0.5 mM EGTA, 1 mM GTP, 10.2% glycerol). To a 96-well plate on ice, aliquots of 100 μL tubulin was added to each well. From this plate, 90 μL of tubulin was immediately pipetted into all sample wells of the warmed assay plate using a multi-channel pipette. The assay plate was immediately put in the reader at 37° C. and shook for 5 s with orbital shaking at medium speed. The reader recorded the absorbance at 340 nm every 15 s for 30 min.
The resulting absorbance curves were normalized by subtracting each data point by the absorbance at time 0.
The largest change in absorbance over the assay time course was also recorded and related to the tubulin control as the % degree of polymerization (% D.O.P.).

Structure (SMILES)	IC50 (MV4-11 cells) [µM]	IC50 (K562 cells) [µM]	IC50 (MOLM-13 cells) [µM]	% Inhibition (tubulin)	% D.O.P. (tubulin)
CN(C)S(=O)(=O)c1c(O)c(F)c(F)c(F)c1F [Compound I-3, 2,3,4,5-tetrafluoro-6-hydroxy-N,N-dimethylbenzenesulfonamide]	> 10	> 10			
COc1c(F)c(F)c(F)c(F)c1S(=O)(=O)N(C)C [Compound I-4, 2,3,4,5-tetrafluoro-6-methoxy-N,N-dimethylbenzenesulfonamide]	1 to 10				
CCOc1c(F)c(F)c(F)c(F)c1S(=O)(=O)N(C)C [Compound I-5, 2-ethoxy-3,4,5,6-tetrafluoro-N,N-dimethylbenzenesulfonamide]		> 10	> 10		
CN(C)S(=O)(=O)c1c(F)c(F)c(F)c(F)c1OCC(F)(F)F [Compound I-10, 2,3,4,5-tetrafluoro-N,N-dimethyl-6-(2,2,2-trifluoroethoxy)benzenesulfonamide]	1 to 10	> 10			
CN(C)S(=O)(=O)c1c(F)c(F)c(F)c(F)c1OCc1ccncc1 [Compound I-17, 2,3,4,5-tetrafluoro-N,N-dimethyl-6-(pyridin-4-ylmethoxy)benzenesulfonamide]		> 10	1 to 10		
CN(C)S(=O)(=O)c1c(F)c(F)c(F)c(F)c1OC(=O)C(C)(C)C [Compound I-20, 2-(N,N-dimethylsulfamoyl)-3,4,5,6-tetrafluorophenyl pivalate]		> 10	1 to 10		
COc1ccc(NS(=O)(=O)c2c(O)c(F)c(F)c(F)c2F)cc1F [Compound I-63, 2,3,4,5-tetrafluoro-N-(3-fluoro-4-methoxyphenyl)-6-hydroxybenzenesulfonamide]	> 10	> 10		A (<10%)	A (>85%)
COc1ccc(NS(=O)(=O)c2c(F)c(F)c(F)c(F)c2OC(F)F)cc1F [Compound I-65, 2-(difluoromethoxy)-3,4,5,6-tetrafluoro-N-(3-fluoro-4-methoxyphenyl)benzenesulfonamide]	≤ 0.1		0.1 to 1	C (>20%)	B (< 85%)
COc1ccc(NS(=O)(=O)c2c(F)c(F)c(F)c(F)c2OCCF)cc1F [Compound I-66, 2,3,4,5-tetrafluoro-N-(3-fluoro-4-methoxyphenyl)-6-(2-fluoroethoxy)benzenesulfonamide]	0.1 to 1		1 to 10	B (10-20%)	B (< 85%)
COc1ccc(NS(=O)(=O)c2c(F)c(F)c(F)c(F)c2OC2CCC2)cc1F [Compound I-69, 2-cyclobutoxy-3,4,5,6-tetrafluoro-N-(3-fluoro-4-methoxyphenyl)benzenesulfonamide]	0.1 to 1			A (<10%)	A (>85%)
COc1ccc(NS(=O)(=O)c2c(F)c(F)c(F)c(F)c2OC2CCCC2)cc1F [Compound I-70, 2-(cyclopentyloxy)-3,4,5,6-tetrafluoro-N-(3-fluoro-4-methoxyphenyl)benzenesulfonamide]	> 10			A (<10%)	A (>85%)
COc1ccc(NS(=O)(=O)c2c(F)c(F)c(F)c(F)c2Oc2ccc(F)cc2)cc1F [Compound I-80, 2,3,4,5-tetrafluoro-N-(3-fluoro-4-methoxyphenyl)-6-(4-fluorophenoxy)benzenesulfonamide]	0.1 to 1				
COc1ccc(CN(Cc2ccc(OC)cc2)S(=O)(=O)c2c(O)c(F)c(F)c(F)c2F)cc1 [Compound I-82, 2,3,4,5-tetrafluoro-6-hydroxy-N,N-bis(4-methoxybenzyl)benzenesulfonamide]				B (10-20%)	A (>85%)
COc1ccc(NS(=O)(=O)c2c(F)c(F)c(F)c(F)c2OC(F)(F)F)cc1F [Compound I-84, 2,3,4,5-tetrafluoro-N-(3-fluoro-4-methoxyphenyl)-6-(trifluoromethoxy)benzenesulfonamide]	≤ 0.1		≤ 0.1	C (>20%)	B (< 85%)
CCOc1c(F)c(F)c(F)c(F)c1S(=O)(=O)Nc1ccc(OC)c(F)c1 [Compound I-85, 2-ethoxy-3,4,5,6-tetrafluoro-N-(3-fluoro-4-methoxyphenyl)benzenesulfonamide]			≤ 0.1	A (<10%)	A (>85%)
CNc1c(F)c(F)c(F)c(F)c1S(=O)(=O)Nc1ccc(OC)c(F)c1 [Compound I-86, 2,3,4,5-tetrafluoro-N-(3-fluoro-4-methoxyphenyl)-6-(methylamino)benzenesulfonamide]	0.1 to 1			A (<10%)	A (>85%)
COc1ccc(CNc2c(F)c(F)c(F)c(F)c2S(=O)(=O)Nc2ccc(OC)c(F)c2)cc1 [Compound I-87, 2,3,4,5-tetrafluoro-N-(3-fluoro-4-methoxyphenyl)-6-((4-methoxybenzyl)amino)benzenesulfonamide]				A (<10%)	A (>85%)
COc1ccc(NS(=O)(=O)c2c(N)c(F)c(F)c(F)c2F)cc1F [Compound I-88, 2-amino-3,4,5,6-tetrafluoro-N-(3-fluoro-4-methoxyphenyl)benzenesulfonamide]				A (<10%)	A (>85%)
O=S(=O)(Nc1ccccc1)c1c(F)c(F)c(F)c(F)c1OC1CC1 [Compound I-95, 2-cyclopropoxy-3,4,5,6-tetrafluoro-N-phenylbenzenesulfonamide]	1 to 10				
O=S(=O)(Nc1ccc(F)cc1)c1c(F)c(F)c(F)c(F)c1OC1CC1 [Compound I-96, 2-cyclopropoxy-3,4,5,6-tetrafluoro-N-(4-fluorophenyl)benzenesulfonamide]	0.1 to 1			A (<10%)	A (>85%)
O=S(=O)(Nc1ccc(F)cc1F)c1c(F)c(F)c(F)c(F)c1OC1CC1 [Compound I-97, 2-cyclopropoxy-N-(2,4-difluorophenyl)-3,4,5,6-tetrafluorobenzenesulfonamide]	> 10				
O=S(=O)(Nc1cc(F)c(F)cc1F)c1c(F)c(F)c(F)c(F)c1OC1CC1 [Compound I-98, 2-cyclopropoxy-3,4,5,6-tetrafluoro-N-(2,4,5-trifluorophenyl)benzenesulfonamide]	> 10				
O=S(=O)(Nc1cccc(Cl)c1)c1c(F)c(F)c(F)c(F)c1OC1CC1 [Compound I-99, N-(3-chlorophenyl)-2-cyclopropoxy-3,4,5,6-tetrafluorobenzenesulfonamide]	> 10	> 10			
N#Cc1cccc(NS(=O)(=O)c2c(F)c(F)c(F)c(F)c2OC2CC2)c1 [Compound I-100, N-(3-cyanophenyl)-2-cyclopropoxy-3,4,5,6-tetrafluorobenzenesulfonamide]	> 10	> 10			
N#Cc1ccc(NS(=O)(=O)c2c(F)c(F)c(F)c(F)c2OC2CC2)cc1 [Compound I-101, N-(4-cyanophenyl)-2-cyclopropoxy-3,4,5,6-tetrafluorobenzenesulfonamide]	> 10				
COC(=O)c1ccc(NS(=O)(=O)c2c(F)c(F)c(F)c(F)c2OC2CC2)cc1 [Compound I-102, methyl 4-((2-cyclopropoxy-3,4,5,6-tetrafluorophenyl)sulfonamido)benzoate]	0.1 to 1	> 10			
O=S(=O)(Nc1ccc(Oc2ccccc2)cc1)c1c(F)c(F)c(F)c(F)c1OC1CC1 [Compound I-103, 2-cyclopropoxy-3,4,5,6-tetrafluoro-N-(4-phenoxyphenyl)benzenesulfonamide]	> 10				
O=S(=O)(Nc1cccc2ccccc12)c1c(F)c(F)c(F)c(F)c1OC1CC1 [Compound I-104, 2-cyclopropoxy-3,4,5,6-tetrafluoro-N-(naphthalen-1-yl)benzenesulfonamide]	> 10				
C#CCN(c1ccc(OC)c(F)c1)S(=O)(=O)c1c(F)c(F)c(F)c(F)c1OC1CC1 [Compound I-124, 2-cyclopropoxy-3,4,5,6-tetrafluoro-N-(3-fluoro-4-methoxyphenyl)-N-(prop-2-yn-1-yl)benzenesulfonamide]	1 to 10	1 to 10			
CN(C)S(=O)(=O)c1c(F)c(F)c(F)c(F)c1OCCF [Compound I-125, 2,3,4,5-tetrafluoro-6-(2-fluoroethoxy)-N,N-dimethylbenzenesulfonamide]	1 to 10	> 10			

— patent publication US12559454B2, “Benzenesulfonamide derivatives and uses thereof” (2692372 Ontario, Inc., priority 2019, dated 2026)
